# Experimental data: patent US12042547B2, “Method for producing luminescent particles, luminescent particles, and bioimaging material” (KYULUX, INC., priority 2018, dated 2024)
# Assay: Evaluation of luminescence properties (emission maximum, PL quantum yield, emission lifetime)
# Format: physicochemical
# Conditions: toluene solution 1.0×10^−5 mol/L, 340-nm excitation
# Protocol: The following examples illustrate the present invention in greater detail. It is to be understood that changes may be made to the below-described materials, processing manner, processing procedure, etc. without departing from the scope of the present invention. Thus, the present invention should not be construed as limited to the following examples. An evaluation of luminescence properties was performed by using an optical spectroscope (PMA-12, manufactured by Hamamatsu Photonics K.K.), and an observation of the shape of particles was performed by using a scanning electron microscope (Inspect S, manufactured by FEI). The average diameter and the polydispersion index of luminescent particles were determined by cumulant analysis using a dynamic light scattering measurement device (DLS-8000DL, manufactured by Otsuka Electronics Co., Ltd.).
# The example particles 1, the example particles 2 and the comparative particles 1 were separately dispersed in water to prepare three aqueous dispersions (0.05 μg/L). For each of the aqueous dispersions and a toluene solution of 4CzIPN (1.0×10^−5 mol/L), the emission maximum wavelength, the PL quantum yield (photoluminescence quantum yield) and the emission lifetime τ1, τ2 were measured using 340-nm excitation light.
# The resulting luminescent particles contained particles having a maximum diameter of less than 1000 nm. The resulting luminescent particles were dispersed in water to prepare an aqueous dispersion (0.05 μg/L). The aqueous dispersion was subjected to measurement of the emission spectrum with 340-nm excitation light. […] The full width at half maximum (FWHM) was as narrow as 29 nm.
compound,measurement,setting,value
N#Cc1c(-n2c3ccccc3c3ccccc32)c(C#N)c(-n2c3ccccc3c3ccccc32)c(-n2c3ccccc3c3ccccc32)c1-n1c2ccccc2c2ccccc21 [4CzIPN],Emission lifetime τ1,after nitrogen bubbling,16 ns
same,Emission lifetime τ2,after nitrogen bubbling,4.71 μs
same,Emission maximum wavelength,after nitrogen bubbling,505 nm
same,PL quantum Yield,after nitrogen bubbling,83%
same,Emission lifetime τ1,before nitrogen bubbling,11 ns
same,Emission lifetime τ2,before nitrogen bubbling,0.31 μs
same,Emission maximum wavelength,before nitrogen bubbling,505 nm
same,PL quantum Yield,before nitrogen bubbling,21%
